Laboratory results published in article PMC9916163, “Evaluation of the Cytotoxic Effect of Pd2Spm against Prostate Cancer through Vibrational Microspectroscopies” (International Journal of Molecular Sciences, 2023).
Where two headings read alike, the source gives them in different places.

How the values were obtained:
PNT-2 = test system: PNT-2; design: method as in PMID 34277574; settings: 96 h, MTT method; read-out: Value previously reported (IC50) PNT-2; cited from earlier work
LNCaP cell line = experiment: MTT cytotoxicity assay, LNCaP cells; assay type: cell-based, human; settings: prostate cancer cells, read-out: Half maximal inhibitory concentration (IC50) LNCaP
Protocol: (§1) The human prostate cancer (PC-3 and LNCaP) and non-tumorigenic (PNT-2) cell lines were obtained from the ECCAC Culture Collections and supplied by Sigma-Aldrich Chemical S.A. (Sintra, Portugal). They were cultured as monolayers, at 37 °C, in a humidified atmosphere of 5% CO2. The cultures were maintained in RPMI-1640 culture medium, supplemented with 10% (v/v) heat-inactivated FBS and 1% (v/v) penicillin/streptomycin. The cells were subcultured at 80% confluence, using 0.05% trypsin-EDTA (1×) in PBS.
(§2) For all cell lines (PC-3, LNCaP and PNT-2), cell cultures were established in 96-well plates (100 µL/well) at a density of 3 × 10^4 cells/cm^2, and were allowed to attach for 24 h. Triplicates were treated for different incubation periods (three independent experiments) with a range of concentrations between 2 and 32 µM of the tested compounds (cisplatin and Pd2Spm). According to the population doubling time for all cell lines (ca. 24 h), 24, 48, and 72 h timepoints after drug administration were chosen.
(§3) In order to evaluate cell viability, the MTT assay was used. Briefly, at each time-point, the growth media was removed, cells were washed with PBS and MTT solution (2.5 mg/mL) was added to each well (100 µL). After 3 h of incubation at 37 °C, the formazan crystals were solubilized in DMSO (100 µL), and the absorbance was measured at 570 nm.
(§4) Cells viability data results are expressed as mean ± standard error of the mean (SEM) and compared with non-treated controls. Statistical analysis was carried out through one-way ANOVA followed by Tukey’s multiple comparison test. A p-value < 0.05 was considered statistically significant.

PC-3 cell line = experiment: MTT cytotoxicity assay, PC-3 cells; assay type: cell-based, human; settings: prostate cancer cells, read-out: Half maximal inhibitory concentration (IC50) PC-3
Protocol: as §1, §2, §3, §4

PC-3 [1] = test system: PC-3; design: method as in PMID 24366574; settings: 48 h, MTT method; read-out: Value previously reported (IC50) PC-3; cited from earlier work
PC-3 [2] = test system: PC-3; design: method as in PMID 17541592; settings: 72 h, SRB method; read-out: Value previously reported (IC50) PC-3; cited from earlier work
PNT-2 cell line = experiment: MTT cytotoxicity assay, PNT-2 cells; assay type: cell-based, human; settings: prostate non-cancer cells, read-out: Half maximal inhibitory concentration (IC50) PNT-2
Protocol: as §1, §2
In order to evaluate cell viability, the MTT assay was used. […] After 3 h of incubation at 37 °C, the formazan crystals were solubilized in DMSO (100 µL), and the absorbance was measured at 570 nm.
Cells viability data results are expressed as mean ± standard error of the mean (SEM) and compared with non-treated controls. […]

LNCaP = test system: LNCaP; design: method as in PMID 17541592; settings: 48 h, SRB method; read-out: Value previously reported (IC50) LNCaP; cited from earlier work

In the case of `N.N.[Cl][Pt][Cl]` [Cisplatin, cis-dichlorodiammine platinum(II)], the IC50 (PNT-2) is listed as 8.5 µM, the IC50 (LNCaP cell line; 24 h incubation) is listed as 13.6 µM and the IC50 (LNCaP cell line; 48 h incubation) is listed as 7.3 µM. The IC50 (LNCaP cell line; 72 h incubation) was 2.7 µM, the IC50 (PC-3 cell line; 24 h incubation) was 25.6 µM and the IC50 (PC-3 cell line; 48 h incubation) was 3 µM. The IC50 (PC-3 cell line; 72 h incubation) was 0.7 µM, the IC50 (PC-3 [1]) was 10.6 µM and the IC50 (PC-3 [2]) was 1 µM. For the same compound, the IC50 (PNT-2 cell line; 48 h incubation) was 5.2 µM, the IC50 (PNT-2 cell line; 72 h incubation) was 2.4 µM and the IC50 (LNCaP) was 3.7 µM.
